Results taken from patent publication US9284296B2, “Bipyridine sulfonamide derivatives for the treatment of neurodegenerative diseases or conditions” (AUBERGINE PHARMACEUTICALS LLC, priority 2010, dated 2016).

Assays:
Format in all cases: cell-based
[1] = system: secretion of soluble amyloid precursor protein-α (sAPPα); assay: Stimulation of sAPPα secretion (CHO7w cells stably transfected with human APP, AlphaLISA); conditions: for EC50 / Emax: Homo sapiens, CHO-7W, CHO7w cells, 24 h incubation, range stated for the listed compounds together; for Emax: read-out: maximum effect (sAPPα secretion)
Description: The effect of the compounds on the stimulation of the secretion of soluble amyloid precursor protein-α (sAPPα) was determined by measuring the levels of this protein in cell supernatants after incubating the cells with several concentrations of the tested compound. A CHO7w cell line, stably transfected with human APP, was used. Cells were dispensed in 96-well culture plates (5,000 cells/well) and grown in DMEM supplemented with 2% (v/v) foetal bovine serum, 100 U/ml penicillin, 100 μg/ml streptomycin, 2 mM L-glutamine and 200 μg/ml G418 in the presence of several concentrations of the tested compound which had been previously dissolved in DMSO (1% (v/v) DMSO final concentration). After 24 h of incubation 5 μl of the culture supernatants were withdrawn and their sAPPα. concentration was measured with a commercial kit (AlphaLISA® Amyloid Precursor Protein-α Secreted Research kit, PerkinElmer, Waltham, Mass., USA) following manufacturer's instructions. In the culture plate several wells were included as a control for background sAPPα secretion, in these wells the cells were incubated with 1% (v/v) DMSO. The results obtained for each tested sample were normalized by using the following equation:
[formula] where “S” is the sAPPα concentration of the sample being considered, “B” is the average sAPPα concentration of wells used for background secretion and “M” is the sAPPα concentration of wells yielding the highest value. These normalized values obtained at every compound concentration were finally used to calculate the EC50 of the tested compound fitting them to a 4-parameters isotherm equation as already described. The average EC50s ranges are reported in Table 4 together with the maximum observed effect (and the concentration at which this effect was reached), this latter value was calculated for each compound according to the following equation:
[formula] with “M” and “B” as defined above.

[2] = system: SH-SY5Y human neuroblastoma cells; assay: Protection against hydrogen peroxide-induced cell death; conditions: for EC50: Homo sapiens, SH-SY5Y cells, 1 h preincubation, 100 μM hydrogen peroxide, 24 h, LDH readout of live cells
Description: The aim of this assay is to determine the neuroprotective effect of the compounds when human neuroblastoma cells are exposed to the oxidative stress induced by hydrogen peroxide, which leads to cell death. Therefore the protective effect of the compounds was measured by monitoring cell survival using a suitable commercial kit (Cytotoxicity Detection Kit, Roche Diagnostics GmbH, Mannheim, Germany) based on the quantification of the lactate dehydrogenase activity obtained from lysates of the remaining live cells with a colorimetric assay yielding absorbance at 492 nm as the final readout.
SH-SY5Y human neuroblastoma cells were seeded into 96-well culture plate at a density of 10,000 cells/well. Cells were preincubated for one hour with different concentrations of the compound at a 1% (v/v) DMSO concentration in an equivolumetric mixture of Minimum Essential Medium (MEM) and Nutrient Mixture HAM F12 supplemented with 10% foetal bovine serum, 100 U/ml penicillin, 100 μg/ml streptomycin, 1 mM each of non-essential aminoacids (commercial preparation from GIBCO, Paisley, UK) and 2 mM L-glutamine. Hydrogen peroxide was then added to reach 100 μM and the incubation was extended for 24 h. Then the medium was removed and live cells, which remained attached to the bottom of the plate, were lysed by incubating them during 5 min with 50 μl of 1% (v/v) Triton X-100 in Krebs-Hepes buffer (10 mM Hepes pH7.3 with 145 mM NaCl, 5.5 mM KCl, 1 mM MgCl2, 2 mM CaCl2 and 1 mM glucose). This lysate was used to measure LDH activity using the commercial kit according to the manufacturer's instructions. In the culture plate several wells were included as a control of cell death, in these wells the cells were preincubated with 1% (v/v) DMSO before hydrogen peroxide addition. Likewise, several wells were included as control for full cell survival, in these wells the addition of H2O2 was omitted. The absorbance of each tested sample was normalized to that of the control wells, so that for every compound concentration the percentage of protective effect was calculated with the following equation:
[formula] where “S” is the absorbance of the sample being considered, “E” is the average absorbance of wells used as control of full cell survival and “B” is the average absorbance of wells used as control of cell death. The values obtained at every compound concentration were finally used to calculate the EC50 (i.e., the concentration causing 50% of protective effect) of the tested compound. For that purpose the data were fitted to a classical 4-parameters isotherm equation using the nonlinear regression function of GraphPad™ Prism 5.0 (GraphPad Software Inc.), such equation is described below:
[formula] where “L” is the lower asymptote of the theoretical sigmoidal curve, “H” is the higher asymptote, “C” is the concentration of compound and “n” is the Hill coefficient.

[3] = system: secretion of amyloid peptide β1-40 (Aβ1-40); assay: Inhibition of β-amyloid secretion (CHO7w cells stably transfected with human APP, ELISA); conditions: CHO-7W, 24 h incubation, range stated for the listed compounds together
Description: The inhibition caused by the compounds on the secretion of amyloid peptide β1-40 (Aβ1-40) was determined by measuring the levels of this peptide in cell supernatants after incubating the cells with several concentrations of the tested compound. A CHO7w cell line, stably transfected with human amyloid precursor protein (APP), was used. Cells were dispensed in 96-well culture plates (5,000 cells/well) and grown in DMEM supplemented with 2% (v/v) foetal bovine serum, 100 U/ml penicillin, 100 μg/ml streptomycin, 2 mM L-glutamine and 200 μg/ml G418 in the presence of several concentrations of the tested compound which had been previously dissolved in DMSO (1% (v/v) DMSO final concentration). After a 24 h incubation the amount of Aβ1-40 secreted to the medium was measured with an ELISA-based commercial kit (Human Amyloid β-40 ELISA High Sensitivity Kit, Millipore, Billerica, Mass., USA) using absorbance at 450 nm as the final readout. In the culture plate several wells were included as a control for lack of Aβ1-40 secretion, in these wells the cells were incubated in the presence of 16% (v/v) DMSO to inhibit cell growth therefore abolishing Aβ1-40 secretion. Likewise, several wells were also included as a control for full Aβ1-40 secretion, in these wells the cells were grown in the presence of 1% (v/v) DMSO. The absorbance of each tested sample was normalized to that of the control wells, so that for every compound concentration the percentage of inhibition was calculated with the following equation:
[formula] where “S” is the absorbance of the sample being considered, “E” is the average absorbance of wells lacking Aβ1-40 secretion and “B” is the average absorbance of wells with full Aβ1-40 secretion. The inhibition values obtained at every compound concentration were fitted to a 4-parameters isotherm equation, as described above, to calculate the […] (i.e., the concentration causing 50% of inhibition of Ab1-40 secretion).

SMILES | EC50 [1] [µM] | IC50 [3] [µM] | Emax [1] [%] | EC50 [2] [µM] | rank of concentration at which maximum effect was reached (sAPPα secretion) ([1]; comparison among tested compounds) | rank of activity among compounds assayed (protection against hydrogen peroxide) ([2]; comparison within Table 2)
CCN(CC)CCOc1cc(CNS(=O)(=O)c2cccs2)nc(-c2ccccn2)c1 [Compound 28, Thiophene-2-sulfonic acid [4-(2-diethylamino-ethoxy)-[2,2′]bipyridinyl-6-ylmethyl]-amide] | 0.5 to 11 |  | 250 to 500 | 1.16 |  | 
CCN(CC)CCOc1cc(CNS(=O)(=O)c2ccc(Cl)s2)nc(-c2ccccn2)c1 [Compound 30, 5-Chloro-thiophene-2-sulfonic acid [4-(2-diethylamino-ethoxy)-[2,2′]bipyridinyl-6-ylmethyl]-amide] | 0.5 to 11 | 0.3 to 42 | 250 to 500 | 0.29 |  | 
CS(=O)(=O)c1cc(CNS(=O)(=O)c2ccc(Cl)s2)nc(-c2ccccn2)c1 [Compound 33, 5-Chloro-thiophene-2-sulfonic acid (4-methanesulfonyl-[2,2′]bipyridinyl-6-ylmethyl)-amide] | 0.5 to 11 | 0.3 to 42 | 250 to 500 | 1.02 |  | 
COc1cc(CNS(=O)(=O)c2cc(Cl)ccc2Cl)nc(-c2ccccn2)c1 [Compound 100] |  | 0.3 to 42 |  | 1.04 |  | 
COc1cc(CN(S(=O)(=O)c2ccc(Cl)s2)S(=O)(=O)c2ccc(Cl)s2)nc(-c2ccccn2)c1 [Compound 26] |  | 0.3 to 42 |  | 4.6 |  | 
COc1cc(CNS(=O)(=O)c2ccc(C)s2)nc(-c2ccccn2)c1 [Compound 24, 5-Methyl-thiophene-2-sulfonic acid (4-methoxy-[2,2′]bipyridinyl-6-ylmethyl)-amide] |  | 0.3 to 42 |  | 3.46 |  | 
COc1cc(CN(Cc2cc(OC)cc(-c3ccccn3)n2)S(=O)(=O)c2ccc(Cl)s2)nc(-c2ccccn2)c1 [Compound 27] |  | 0.3 to 42 |  | 3.52 |  | 
CCN(CC)CCOc1cc(CNS(=O)(=O)c2ccc(C)s2)nc(-c2ccccn2)c1 [Compound 32, 5-Methyl-thiophene-2-sulfonic acid [4-(2-diethylamino-ethoxy)-[2,2′]bipyridinyl-6-ylmethyl]-amide] | 0.5 to 11 |  | 250 to 500 | 0.55 |  | 
COc1cc(CNS(=O)(=O)c2cc(Cl)sc2Cl)nc(-c2ccccn2)c1 [Compound 19, 2,5-Dichloro-thiophene-3-sulfonic acid (4-methoxy-[2,2′]bipyridinyl-6-ylmethyl)-amide] | 0.5 to 11 | 0.3 to 42 | 250 to 500 | 1.3 |  | 

The next lines start with results.

EC50 [1] [µM] | IC50 [3] [µM] | SMILES | Emax [1] [%] | EC50 [2] [µM] | rank of concentration at which maximum effect was reached (sAPPα secretion) ([1]; comparison among tested compounds) | rank of activity among compounds assayed (protection against hydrogen peroxide) ([2]; comparison within Table 2)
0.5 to 11 |  | COc1cc(CNS(=O)(=O)c2ccccc2)nc(-c2ccccn2)c1 [Compound 6, N-(4-Methoxy-[2,2′]bipyridinyl-6-ylmethyl)-benzenesulfonamide] | 250 to 500 | 1.58 |  | 
0.5 to 11 |  | COc1cc(CNS(=O)(=O)c2ccc(C#N)cc2)nc(-c2ccccn2)c1 [Compound 13, 4-Cyano-N-(4-methoxy-[2,2′]bipyridinyl-6-ylmethyl)-benzenesulfonamide] | 250 to 500 | 1.5 |  | 
0.5 to 11 |  | COc1cc(CNS(=O)(=O)c2ccc(C(C)=O)cc2)nc(-c2ccccn2)c1 [Compound 9] | 250 to 500 | 6.1 |  | 
0.5 to 11 |  | COc1cc(CNS(=O)(=O)c2ccc(Br)cc2)nc(-c2ccccn2)c1 [Compound 16, 4-Bromo-N-(4-methoxy-[2,2′]bipyridinyl-6-ylmethyl)-benzenesulfonamide] | 250 to 500 | 3.2 |  | 
0.5 to 11 |  | COc1cc(CNS(=O)(=O)c2ccc(F)c(C#N)c2)nc(-c2ccccn2)c1 [Compound 14, 3-Cyano-4-fluoro-N-(4-methoxy-[2,2′]bipyridinyl-6-ylmethyl)-benzenesulfonamide] | 250 to 500 | 1.6 |  | 
 | 0.3 to 42 | COc1cc(CNS(=O)(=O)c2cccc(Cl)c2F)nc(-c2ccccn2)c1 [Compound 56] |  | 1.06 |  | 
0.5 to 11 |  | COc1cc(CNS(=O)(=O)c2cccs2)nc(-c2ccccn2)c1 [Compound 8] | 250 to 500 | 0.09 | maximum effect at the lowest concentration | most active compound
 | 0.3 to 42 | COc1cc(CNS(=O)(=O)c2ccc(C(F)(F)F)cc2)nc(-c2ccccn2)c1 [Compound 4, N-(4-Methoxy-[2,2′]bipyridinyl-6-ylmethyl)-4-trifluoromethyl-benzenesulfonamide] |  | 2.6 |  | 
0.5 to 11 |  | COc1cc(CNS(=O)(=O)c2cccc(F)c2)nc(-c2ccccn2)c1 [Compound 12, 3-Fluoro-N-(4-methoxy-[2,2′]bipyridinyl-6-ylmethyl)-benzenesulfonamide] | 250 to 500 | 1.06 |  | 
0.5 to 11 | 0.3 to 42 | COc1cc(CNS(=O)(=O)c2cc(F)cc(F)c2)nc(-c2ccccn2)c1 [Compound 10] | 250 to 500 | 1.17 |  | 
0.5 to 11 |  | COc1cc(CNS(=O)(=O)c2ccc(F)cc2)nc(-c2ccccn2)c1 [Compound 11, 4-Fluoro-N-(4-methoxy-[2,2′]bipyridinyl-6-ylmethyl)-benzenesulfonamide] | 250 to 500 | 1.3 |  | 
0.5 to 11 |  | COc1cc(CNS(=O)(=O)c2ccc(Br)s2)nc(-c2ccccn2)c1 [Compound 18, 5-Bromo-thiophene-2-sulfonic acid (4-methoxy-[2,2′]bipyridinyl-6-ylmethyl)-amide] | 250 to 500 | 1.88 |  | 
